# Reference: US6818407B2, “Anti-endotoxic antimicrobial cationic peptides and methods of use therfor” (priority 1998, dated 2004)
# Ends that are not written are not given here.
# Experiments:
# S. aureus K147 = experiment: MIC, broth microdilution assay in polypropylene microtiter trays; format: cell-based; conditions: average of three separate experiments
# Description: (§1) The biological activity of the peptides can be determined by standard methods known to those of skill in the art, such as Aminimal inhibitory concentration (MIC)≅ assay described in the present examples, whereby the lowest concentration at which no change in OD is observed for a given period of time is recorded as MIC. Alternatively, Afractional inhibitory concentration (FIC)≅ is also useful for determination of synergy between the peptides of the invention, or the peptides in combination with known antibiotics. FICs are performed by checkerboard titrations of peptides in one dimension of a microtiter plate, and of antibiotics in the other dimension, for example. The FIC is calculated by looking at the impact of one antibiotic on the MIC of the other and vice versa. […] Preferably, an FIC of less than 0.5 is obtained for synergism. As used herein, FIC can be determined as follows: [formula]
# (§2) A method which employed polypropylene microtiter trays in a broth microdilution assay was developed.
# E. coli [1] = experiment: as above; format: cell-based; conditions: average of three separate experiments
# Description: as §1, §2
# S. epidermis = experiment: as above; format: cell-based; conditions: average of three separate experiments
# Description: as §1, §2
# P. aeruginosa = experiment: as above; format: cell-based; conditions: average of three separate experiments
# Description: as §1, §2
# S. aureus = experiment: as above; format: cell-based; conditions: average of three separate experiments
# Description: as §1, §2
# [2] = test system: mutant (Nal B, H744) of P. aeruginosa; experiment: microbe, parasite or virus in culture; format: cell-based; conditions: for (B) MIC of Cipro when combined with peptide: ciprofloxacin with peptide at concentration (A); for (B) MIC of Cipro when combined with peptide / (A) Peptide doses together with Cipro: Nal B, H744; for MIC A MIC of Peptides: peptide alone, P. aeruginosa mutant Nal B, H744 (Table 5); for (A) Peptide doses together with Cipro: peptide concentration in combination with ciprofloxacin
# Description: as §1
# (§3) To test whether the peptides of the invention synergize with various antibiotics, the following method was employed. Fractional Inhibitory Concentration (FIC) was used to determine synergy of peptides combined with antibiotics (e.g., carbenicillin/ciprofloxacin) against Pseudomonas aeruginosa. The following methodology was followed:
# (§4) (1) Determination of MIC of cationic peptides (MIC A):
# (§5) 100 μl Mueller Hinton broth (MHB) was added per well
# (§6) 12.5 μl of 10× test concentration peptide was added per well to get final peptide concentration of e.g., 128, 64, 32, . . . 0.025 μg/ml from row 1 to 11;
# (§7) 10 μl of 10^−4 dilution of overnight bacterial culture was added per well.
# (§8) (2) Determination of MIC of Carbenicillin/Ciprofloxacin (MIC B):
# (§9) 100 μl MHB was added per well;
# (§10) 100 μl of 2× test concentration of antibiotic was added in the first well of the row, and doubling dilutions performed across the plate from column 1 to 11;
# (§11) (3) Determination of MIC of antibiotics (B) when combined with peptides at concentration A:
# (§12) 100 μl Carbenicillin (512 μg/ml) or Ciprofloxacin (8 μg/ml) was added in each well of column 1; doubling dilutions were performed across the plate;
# (§13) 100 μl of the peptide was added in all wells of row 1, mixed, and 100 μl withdrawn and added to row 2, etc., creating a checkerboard titration.
# (§14) 10 μl of 10^−4 dilution of overnight culture was added per well;
# (§15) plates were incubated at 37EC for 18-24 hours. Combination MIC values A and B were taken as the lowest concentration of drug that reduced bacterial growth by more than 50% in any given column.
# (§16) (4) FIC index=FICA+FICB=(A)/MIC A+(B)/MIC B. An FIC index of approximately 0.5 or less indicates synergy; 1.0 reflects additivity; and >1.0 indicates antagonism.
# [3] = test system: β-lactamase derepressed mutant (H547) of P. aeruginosa; experiment: microbe, parasite or virus in culture; format: cell-based; conditions: P. aeruginosa H547; for (B) MIC of Carb when combined with peptide: Carbenicillin with peptide at concentration (A); for MIC A MIC of Peptides: peptide alone; for (A) Peptide doses together with Carb: peptide concentration in combination with Carbenicillin
# Description: as §1, §3, §4, §5, §6, §7, §8, §9, §10, §11, §12, §13, §14, §15, §16
# Salmonella typhi = experiment: Synergy study (checkerboard titration) with hen white lysozyme; format: cell-based; conditions: for Lowest [CP] showing synergy: cationic peptide concentration, combined with lysozyme; for Lowest [Lyso] showing synergy: lysozyme concentration, combined with the peptide
# Description: as §1
# E. coli [4] = experiment: as above; format: cell-based; conditions: for Lowest [CP] showing synergy: cationic peptide concentration, combined with lysozyme; for Lowest [Lyso] showing synergy: lysozyme concentration, combined with the peptide
# Description: as §1
# P. aeruginosa (H103) = experiment: as above; format: cell-based; conditions: for Lowest [CP] showing synergy: cationic peptide concentration, combined with lysozyme; for Lowest [Lyso] showing synergy: lysozyme concentration, combined with the peptide
# Description: as §1
# [5] = Lethal endotoxemia in galactosamine-sensitized mice; format: in vivo, CD-1 mice; conditions: peptide 200 μg intraperitoneal within 10 min of 10 μg LPS; 24 hours post injection; 5 mice per group; no peptide 100
# Description: To confirm this in vivo, endotoxic shock was induced by intraperitoneal injection of 10 μg of E.coli 0111:B4 LPS in phosphate-buffered saline (PBS; pH 7.2) into galactosamine-sensitized 8- to 10- week old female CD-1 mice (5 per group). In experiments involving peptides, 200 μg in 100 μl of sterile water was injected at separate intraperitoneal sites within 10 min of LPS injection. Survival was monitored at 24 hours post injection.
# [6] = test system: Pseudomonas aeruginosa strain M2; experiment: Protection of neutropenic CD-1 mice challenged with Pseudomonas aeruginosa; format: in vivo; parameters: Survival post bacterial challenge, surviving mice: reference not given here; conditions: for Survival (%) post bacterial challenge: PBS 8
# Description: CD-1 mice were induced to be neutropenic via 3 intraperitoneal injections of cyclophosphamide ([…]) every another day. Immediately after the third administration of cyclophosphamide, the mice were challenged by intraperitoneal injection of Pseudomonas aeruginosa strain M2 (200-300 organisms/mouse). Cationic peptides (200 µg per mouse=8 mg/kg) in 100 µl buffered citrate were injected intraperitoneally at 30 min (single dose) or 30 min and 16 hrs (double dose) post bacterial challenge, respectively. The data were the average values of 2 individual experiments. PBS was used as a control. […] In general single dose protection studies gave better protection than double dose experiments.
substance,measurement,setting,value
KWKSFIKKLTKAAKKVVTTAKKPLIV [CM2],MIC S. aureus K147,S. aureus K147,>64 µg/mL
same,MIC E. coli,E. coli [1],1 µg/mL
same,MIC S. epidermis,S. epidermis,5 µg/mL
same,MIC P. aeruginosa,P. aeruginosa,3 µg/mL
same,MIC S. aureus,S. aureus,>64 µg/mL
same,(B) MIC of Cipro when combined with peptide,[2],.25 µg/mL
same,MIC A MIC of Peptides,[2],1 µg/mL
same,(A) Peptide doses together with Cipro,[2],.5 µg/mL
same,(B) MIC of Carb when combined with peptide,[3],64 µg/mL
same,MIC A MIC of Peptides,[3],4 µg/mL
same,(A) Peptide doses together with Carb,[3],.5 µg/mL
same,FIC for combination of cationic peptide and lysozyme,Salmonella typhi,0.53
same,Lowest [CP] showing synergy,Salmonella typhi,2.61 µg/mL
same,Lowest [Lyso] showing synergy,Salmonella typhi,31.3 µg/mL
same,FIC for combination of cationic peptide and lysozyme,E. coli [4],0.25
same,Lowest [CP] showing synergy,E. coli [4],0.081 µg/mL
same,Lowest [Lyso] showing synergy,E. coli [4],7.8 µg/mL
same,FIC for combination of cationic peptide and lysozyme,P. aeruginosa (H103),0.37
same,Lowest [CP] showing synergy,P. aeruginosa (H103),1.3 µg/mL
same,Lowest [Lyso] showing synergy,P. aeruginosa (H103),7.8 µg/mL
same,Mortality (%),[5],80%
same,"Survival post bacterial challenge, surviving mice","[6]; double dose (200 μg per mouse i.p. at 30 min and 16 hrs), 16 hr",14
same,"Survival post bacterial challenge, surviving mice","[6]; double dose, 24 hr",14
same,"Survival post bacterial challenge, surviving mice","[6]; double dose, 41 hr",10
same,"Survival post bacterial challenge, surviving mice","[6]; double dose, 48 hr",7
same,"Survival post bacterial challenge, surviving mice","[6]; double dose, 64 hr",7
same,Survival (%) post bacterial challenge,"[6]; double dose, 64 hr",50%
same,"Survival post bacterial challenge, surviving mice","[6]; double dose, 72 hr",7
same,Survival (%) post bacterial challenge,"[6]; double dose, 72 hr",50%
same,"Survival post bacterial challenge, surviving mice","[6]; double dose, 96 hr",6
same,Survival (%) post bacterial challenge,"[6]; double dose, 96 hr",42%
same,"Survival post bacterial challenge, surviving mice","[6]; single dose (200 μg per mouse i.p. at 30 min), 16 hr",15
same,"Survival post bacterial challenge, surviving mice","[6]; single dose, 24 hr",15
same,"Survival post bacterial challenge, surviving mice","[6]; single dose, 41 hr",13
same,"Survival post bacterial challenge, surviving mice","[6]; single dose, 48 hr",12
same,"Survival post bacterial challenge, surviving mice","[6]; single dose, 64 hr",11
same,Survival (%) post bacterial challenge,"[6]; single dose, 64 hr",73%
same,"Survival post bacterial challenge, surviving mice","[6]; single dose, 72 hr",11
same,Survival (%) post bacterial challenge,"[6]; single dose, 72 hr",73%
same,"Survival post bacterial challenge, surviving mice","[6]; single dose, 96 hr",10
same,Survival (%) post bacterial challenge,"[6]; single dose, 96 hr",66%
H-KWKSFIKKLTSAAKKVVTTAKPLALIS-OH [CM1],MIC S. aureus K147,S. aureus K147,32 µg/mL
same,MIC E. coli,E. coli [1],1 µg/mL
same,MIC S. epidermis,S. epidermis,21 µg/mL
same,MIC P. aeruginosa,P. aeruginosa,5 µg/mL
same,MIC S. aureus,S. aureus,64 µg/mL
same,(B) MIC of Cipro when combined with peptide,[2],.25 µg/mL
same,MIC A MIC of Peptides,[2],2 µg/mL
same,(A) Peptide doses together with Cipro,[2],1 µg/mL
same,(B) MIC of Carb when combined with peptide,[3],64 µg/mL
same,MIC A MIC of Peptides,[3],16 µg/mL
same,(A) Peptide doses together with Carb,[3],2 µg/mL
same,FIC for combination of cationic peptide and lysozyme,Salmonella typhi,0.53
same,Lowest [CP] showing synergy,Salmonella typhi,0.531 µg/mL
same,Lowest [Lyso] showing synergy,Salmonella typhi,31.3 µg/mL
same,FIC for combination of cationic peptide and lysozyme,E. coli [4],0.19
same,Lowest [CP] showing synergy,E. coli [4],0.041 µg/mL
same,Lowest [Lyso] showing synergy,E. coli [4],7.8 µg/mL
same,FIC for combination of cationic peptide and lysozyme,P. aeruginosa (H103),0.28
same,Lowest [CP] showing synergy,P. aeruginosa (H103),0.65 µg/mL
same,Lowest [Lyso] showing synergy,P. aeruginosa (H103),7.8 µg/mL
same,Mortality (%),[5],100%
